Data: patent US20230107642A1 (Erasca, Inc., priority 2020, published 2023)

Experiments:
[1] = molecular target: T1, Cys12 of the KRAS 4B G12C protein (Homo sapiens, UniProt P01116, G12C); assay: In vitro covalent adduct formation (CAF) assay, LC-MS intact mass; format: binding; conditions: for % CAF 10 uM @ 60 min: 10 uM compound
T1 construct: This protein contained 188 amino acids in total, including an N-terminal 6-Histidine tag; made in house; host or cells: E. coli BL21
Description: This Example provides a protocol for assessing covalent adduct formation (CAF) between the compounds of the present application and KRAS.
In vitro covalent adduct formation assay: Covalent adduct formation (CAF) reactions between Cys12 of the KRAS 4B G12C protein and some of the compounds of Tables 1 to 4 were measured in vitro using liquid chromatography-mass spectrometry (LC-MS).
Recombinant Human KRAS 4B protein containing the G12C mutation was used in compound screening experiments. This protein contained 188 amino acids in total, including an N-terminal 6-Histidine tag, followed by a Tobacco Etch Virus (TEV) tag, followed by residues 1-169 of the native KRAS 4B sequence. The exact mass of the protein was 21,310 Da as determined by mass spectrometry. The full amino acid sequence is shown below: […]
The recombinant protein was expressed in E. coli BL21 cells and purified using affinity chromatography via a Ni-NTA column. Protein stocks were nucleotide-exchanged to >95% GDP, concentrated to 4 mg/mL, and stored at −80° C. in storage buffer (50 mM HEPES pH 7.4, 50 mM NaCl, 5 mM MgCl2, 1 mM DTT). Pure KRAS 4B G12C protein was diluted to a concentration of 5 μM in Tris Buffered Saline, pH 7.4. The compounds were dissolved in DMSO and added to the diluted protein to make a 10 μM concentration. The total DMSO concentration in the reaction was 4%. The reaction was mixed by pipetting and incubated at 22° C. for one hour. Aliquots of the reaction were taken over time and diluted 2:1 in 0.1% formic acid. The intact mass of the protein samples was measured by LC-MS using a QExactive+ mass spectrometer (Thermo Scientific). An amount of 500 ng total protein was injected onto a C8 reverse phase column, eluted with a seven-minute gradient of 30%-90% acetonitrile/0.1% formic acid, and analyzed for intact mass by the mass spectrometer. Adducts identified were confirmed to be within 1 Dalton of the expected mass, and the relative ratios of free:adduct protein were used to quantify the percentage of protein bound by the compound. CAF reactions were run in duplicate, with a typical variability of ±5%.

K-Ras G12C = molecular target: T2, K-Ras G12C (Homo sapiens, UniProt P01116, G12C); assay: CAF assay (% CAF; method in Example 7, not in this part); format: binding
T2 construct: This protein contained 188 amino acids in total, including an N-terminal 6-Histidine tag; made in house; host or cells: E. coli BL21

% CAF 10 uM @ 60 min ([1]; 60 min)	% CAF @ 10 uM, 1h (K-Ras G12C; 10 uM, 1 h, Table 3)	Compound	further results
92.8%		(3S,10R)-7-((2S,5R)-4-acryloyl-2,5-dimethylpiperazin-1-yl)-10-(5-chloro-2,4-difluorophenyl)-3-((4-cyclopropylpiperazin-1-yl)methyl)-9-(trifluoromethyl)-2,3-dihydro-5H-[1,4]thiazino[2,3,4-ij]quinazolin-5-one [Example 1360]	
78.9%		C=CC(=O)N1CCN(c2nc(=O)n3c4c(c(-c5ccc(F)cc5)c(C(F)(F)F)cc24)SC[C@@H]3CN2CCN(CC)CC2)CC1 [Example 1378, (S)-7-(4-acryloylpiperazin-1-yl)-3-((4-ethylpiperazin-1-yl)methyl)-10-(4-fluorophenyl)-9-(trifluoromethyl)-2,3-dihydro-5H-[1,4]thiazino[2,3,4-ij]quinazolin-5-one]	
93.3%		C=CC(=O)N1[C@H](C)CN(c2nc(=O)n3c4c(c(-c5cc(Cl)c(F)cc5F)c(C(F)(F)F)cc24)SCC2(COC2)C3)C[C@@H]1C (atropisomer, axis not shown) [Example 1361a, (R)-8′-((3S,5R)-4-acryloyl-3,5-dimethylpiperazin-1-yl)-11′-(5-chloro-2,4-difluorophenyl)-10′-(trifluoromethyl)-2′H,4′H,6′H-spiro[oxetane-3,3′-[1,4]thiazepino[2,3,4-ij]quinazolin]-6′-one]	
		C=CC(=O)N1[C@H](C)CN(c2nc(=O)n3c4c(c(-c5cccc6cnn(C)c56)c(C(F)(F)F)cc24)SC[C@@H]3COC)C[C@@H]1C (atropisomer, axis not shown) [Example 1131, (3S,10R)-7-((3S,5R)-4-acryloyl-3,5-dimethylpiperazin-1-yl)-3-(methoxymethyl)-10-(1-methyl-1H-indazol-7-yl)-9-(trifluoromethyl)-2,3-dihydro-5H-[1,4]thiazino [2,3,4-ij]quinazolin-5-one]	% CAF 10 uM @ 60 min ([1]; 60 min incubation): 18.2%
		C=CC(=O)N1CCN(c2nc(=O)n3c4c(c(-c5cc(Cl)c(F)cc5F)c(C(F)(F)F)cc24)SC[C@@H](OC)C3)[C@@H]2COC[C@@H]21 [Example 1213, (3S)-8-((4aR,7aS)-4-acryloylhexahydrofuro[3,4-b]pyrazin-1(2H)-yl)-11-(5-chloro-2,4-difluorophenyl)-3-methoxy-10-(trifluoromethyl)-3,4-dihydro-2H,6H-[1,4]thiazepino[2,3,4-ij]quinazolin-6-one]	CAF (% after 1 hour) ([1]; 10 μM compound, after 1 hour): 59%
96.3%		C=CC(=O)N1CCN(c2nc(=O)n3c4c(c(-c5ccc(F)cc5)c(C(F)(F)F)cc24)SC[C@@H]3COCOC)CC1 [Example 1358, (S)-7-(4-acryloylpiperazin-1-yl)-10-(4-fluorophenyl)-3-((methoxymethoxy)methyl)-9-(trifluoromethyl)-2H-[1,4]thiazino[2,3,4-ij]quinazolin-5(3H)-one]	
96.3%		C=CC(=O)N1C[C@H](C)N(c2nc(=O)n3c4c(c(-c5ccc(F)cc5F)c(C(F)(F)F)cc24)SC[C@@H]3CN2CCC3(CC2)COC3)C[C@H]1C (atropisomer, axis not shown) [Example 1315, (3S,10R)-3-((2-oxa-7-azaspiro[3.5]nonan-7-yl)methyl)-7-((2S,5R)-4-acryloyl-2,5-dimethylpiperazin-1-yl)-10-(2,4-difluorophenyl)-9-(trifluoromethyl)-2,3-dihydro-5H-[1,4]thiazino[2,3,4-ij]quinazolin-5-one]	
97%		C=CC(=O)N1[C@H](C)CN(c2nc(=O)n3c4c(c(-c5cc(Br)c(F)cc5F)c(C(F)(F)F)cc24)SC[C@@H]3COC)C[C@@H]1C (atropisomer, axis not shown) [Example 1447, (3S,10R)-7-((3S,5R)-4-Acryloyl-3,5-dimethylpiperazin-1-yl)-10-(5-bromo-2,4-difluorophenyl)-3-(methoxymethyl)-9-(trifluoromethyl)-2,3-dihydro-5H-[1,4]thiazino[2,3,4-ij]quinazolin-5-one]	
	95.7%	C=CC(=O)N1CCN(c2nc(=O)n3c4c(c(-c5ccc(F)cc5F)c(C(F)(F)F)cc24)SCC3)[C@@H](C)C1 [Example 141, 7-((S)-4-acryloyl-2-methylpiperazin-1-yl)-10-(2,4-difluorophenyl)-9-(trifluoromethyl)-2,3-dihydro-5H-[1,4]thiazino[2,3,4-ij]quinazolin-5-one]	
		C=CC(=O)N1CCN(c2nc(=O)n3c4c(c(-c5ccc(F)cc5F)c(Cl)cc24)SC[C@@H](OC)C3)CC1 [Example 504, (3S)-8-(4-acryloylpiperazin-1-yl)-10-chloro-11-(2,4-difluorophenyl)-3-methoxy-3,4-dihydro-2H,6H-[1,4]thiazepino[2,3,4-ij]quinazolin-6-one]	% CAF @ 10 uM, 1h (K-Ras G12C; 10 uM compound, 1 h incubation): 96%
		C=CC(=O)N1CCN(c2nc(=O)n3c4c(c(-c5ccc(F)cc5F)c(Cl)cc24)SC[C@H]3CC2CCN(C)CC2)[C@@H](C)C1 [Example 345, (3R)-7-((S)-4-acryloyl-2-methylpiperazin-1-yl)-9-chloro-10-(2,4-difluorophenyl)-3-((1-methylpiperidin-4-yl)methyl)-2H-[1,4]thiazino[2,3,4-ij]quinazolin-5(3H)-one]	% CAF @ 10 μM, 1 h (K-Ras G12C; 10 μM, 1 h, Table 4): 82.4%
	86.2%	C[C@H]1CN(C(=O)/C=C/C(F)(F)F)CCN1c1nc(=O)n2c3c(c(-c4ccc(F)cc4F)c(Cl)cc13)SCC2 [Example 112, 9-chloro-10-(2,4-difluorophenyl)-7-((S)-2-methyl-4-((E)-4,4,4-trifluorobut-2-enoyl)piperazin-1-yl)-2,3-dihydro-5H-[1,4]thiazino[2,3,4-ij]quinazolin-5-one]	
	93.5%	C=CC(=O)N1C[C@H](C)N(c2nc(=O)n3c4c(c(-c5ccc(F)cc5F)c(Cl)cc24)S(=O)(=O)CC3)C[C@H]1C (atropisomer, axis not shown) [Example 177, (S)-7-((2S,5R)-4-acryloyl-2,5-dimethylpiperazin-1-yl)-9-chloro-10-(2,4-difluorophenyl)-2,3-dihydro-5H-[1,4]thiazino[2,3,4-ij]quinazolin-5-one 1,1-dioxide]	
	58%	C=CC(=O)N1CCN(c2nc(=O)n3c4c(c(-c5ccc(F)cc5F)c(Cl)cc24)SCC3)C2CCC21 (stereo not shown) [Example 145, 7-(5-acryloyl-2,5-diazabicyclo[4.2.0]octan-2-yl)-9-chloro-10-(2,4-difluorophenyl)-2,3-dihydro-5H-[1,4]thiazino[2,3,4-ij]quinazolin-5-one]	
	90.2%	C=CC(=O)N1CCN(c2nc(=O)n3c4c(c(-c5ccc(F)cc5F)c(Cl)cc24)SCC3)C[C@@H]1CC#N [Example 88, 2-((2S)-1-acryloyl-4-(9-chloro-10-(2,4-difluorophenyl)-5-oxo-2,3-dihydro-5H-[1,4]thiazino[2,3,4-ij]quinazolin-7-yl)piperazin-2-yl)acetonitrile]	

Compound	% CAF 10 uM @ 60 min ([1]; 60 min)	% CAF @ 10 uM, 1h (K-Ras G12C; 10 uM, 1 h, Table 3)	further results
C=CC(=O)N1C2COCC1CN(c1nc(=O)n3c4c(c(-c5ccc(F)cc5F)c(Cl)cc14)SCC3)C2 [Example 182, 7-(9-acryloyl-3-oxa-7,9-diazabicyclo[3.3.1]nonan-7-yl)-9-chloro-10-(2,4-difluorophenyl)-2,3-dihydro-5H-[1,4]thiazino[2,3,4-ij]quinazolin-5-one]		94.4%	
